Assay results as given in patent publication US12435044B2, “Pyridazinone herbicides and pyridazinone intermediates used to prepare a herbicide” (FMC Corporation, priority 2018, dated 2025).

Assays:
Assay in all cases: Test C postemergence greenhouse test
Format in all cases: in vivo
Settings in all cases: scale 0 to 100
[1] = test system: cutleaf geranium (Geranium dissectum)
From the text: (§1) Seeds of plant species selected from blackgrass (Alopecurus myosuroides), ryegrass, Italian (Lolium multiflorum), wheat, winter (winter wheat, Triticum aestivum), galium (catchweed bedstraw, Galium aparine), corn (Zea mays), crabgrass, large (Digitaria sanguinalis), foxtail, giant (Setaria faberii), johnsongrass (Sorghum halepense), lambsquarters (Chenopodium album), morningglory (Ipomoea coccinea), nutsedge, yellow (Cyperus esculentus), pigweed (Amaranthus retroflexus), ragweed (common ragweed, Ambrosia elatior), soybean (Glycine max), barnyardgrass (Echinochloa crus-galli), oilseed rape (Brassica napus), waterhemp (common waterhemp, Amaranthus rudis), pigweed, palmer (Amaranthus palmeri), kochia (Kochia scoparia), oat, wild (Avena fatua), surinam grass (Brachiaria decumbens), windgrass (Apera spica-venti), poinsettia, wild (Euphorbia heterophylla) and velvetleaf (Abutilon theophrasti) were planted into a silt loam soil and treated preemergence with test chemicals formulated in a non-phytotoxic solvent mixture which included a surfactant.
(§2) At the same time, plants selected from these crop and weed species and also chickweed (common chickweed, Stellaria media), buckwheat, wild (Polygonum convolvulus), mustard, wild (Sinapis arvensis), field poppy (Papaver rhoeas), field violet (Viola arvensis), nightshade (eastern black nightshade, Solanum ptycanthum), speedwell (bird's-eye speedwell, Veronica persica), horseweed (Conyza canadensis), cutleaf geranium (Geranium dissectum), and Canada thistle (Cirsium arvense) were planted in pots containing Redi-Earth® planting medium (Scotts Company, 14111 Scottslawn Road, Marysville, Ohio 43041) comprising spaghnum peat moss, vermiculite, wetting agent and starter nutrients and treated with postemergence applications of test chemicals formulated in the same manner. Plants ranged in height from 2 to 18 cm (1- to 4-leaf stage) for postemergence treatments. Treated plants and controls were maintained in a greenhouse for 13 to 21 d, after which time all species were compared to controls and visually evaluated. Plant response ratings, summarized in Table C-1 (postemergence) and C-2 (preemergence), are based on a scale of 0 to 100 where 0 is no effect and 100 is complete control. A dash (-) response means no test result.

[2] = test system: Canada thistle (Cirsium arvense)
From the text: as §1, §2

[3] = test system: mustard, wild (Sinapis arvensis)
From the text: as §1, §2

[4] = test system: field violet (Viola arvensis)
From the text: as §1, §2

[5] = test system: speedwell (bird's-eye speedwell, Veronica persica)
From the text: as §1, §2

[6] = test system: buckwheat, wild (Polygonum convolvulus)
From the text: as §1, §2

## Cc1ccc2ccc(Cl)cc2c1-c1c(O)c(Cl)nn(C)c1=O [Cpd. No. 22]
[1]; 16 g ai/ha
  Plant response rating, Cutleaf Geranium: 70
[1]; 31 g ai/ha
  Plant response rating, Cutleaf Geranium: 80
[1]; 62 g ai/ha
  Plant response rating, Cutleaf Geranium: 85
[1]; 125 g ai/ha
  Plant response rating, Cutleaf Geranium: 85
[2]; 16 g ai/ha
  Plant response rating, Canada Thistle: 80
[2]; 31 g ai/ha
  Plant response rating, Canada Thistle: 80
[2]; 62 g ai/ha
  Plant response rating, Canada Thistle: 100
[2]; 125 g ai/ha
  Plant response rating, Canada Thistle: 100
[3]; 16 g ai/ha
  Plant response rating, Mustard, Wild: 75
[3]; 31 g ai/ha
  Plant response rating, Mustard, Wild: 75
[3]; 62 g ai/ha
  Plant response rating, Mustard, Wild: 100
[3]; 125 g ai/ha
  Plant response rating, Mustard, Wild: 100
[4]; 16 g ai/ha
  Plant response rating, Field Violet: 60
[4]; 31 g ai/ha
  Plant response rating, Field Violet: 70
[4]; 62 g ai/ha
  Plant response rating, Field Violet: 75
[4]; 125 g ai/ha
  Plant response rating, Field Violet: 80
[5]; 16 g ai/ha
  Plant response rating, Speedwell: 50
[5]; 31 g ai/ha
  Plant response rating, Speedwell: 60
[5]; 62 g ai/ha
  Plant response rating, Speedwell: 75
[5]; 125 g ai/ha
  Plant response rating, Speedwell: 90
[6]; 16 g ai/ha
  Plant response rating, Buckwheat, Wild: 95
[6]; 31 g ai/ha
  Plant response rating, Buckwheat, Wild: 100
[6]; 62 g ai/ha
  Plant response rating, Buckwheat, Wild: 100
[6]; 125 g ai/ha
  Plant response rating, Buckwheat, Wild: 100
